The subject of data set [1] is renal fibrosis induced by renal ischemia-reperfusion injury. Put plainly: Renal fibrosis induced by renal ischemia-reperfusion injury in mice. The format is in vivo, C57BL/6J mice. On the procedure: Animal experiments were performed with the approval of the Animal Experimental Ethics Committee, Yeungnam University College of Medicine (YUMC-AEC2018-024). C57BL/6J 8-week-old male mice were anesthetized by intraperitoneal injection of 2.5% Avertin (0.025 ml/g body weight).
The anesthetized mice were placed on a hot plate at 37° C. and the left flank was incised to expose the left kidney. The renal arteriovenous blood vessels were ligated with a microaneurism clamp (Roboz), and whether the blood vessels were blocked or not was confirmed by the color of the kidneys. During the induction of ischemia, the body temperature of the mice was maintained at 36.5-37.5° C. After 35 minutes, the clamp was removed and it was confirmed that reperfusion occurred.
As a control, renal arteriovenous vessels were not ligated, and the rest was performed in the same manner as above. From 4 days after ischemia-reperfusion injury, 2.5 μl of 10 mM zotarolimus was diluted in 100 μl of phosphate buffer solution at intervals of 2 days and injected into the abdominal cavity 3 times (Zota group). […] Three mice were used for each group.
The left kidney in which ischemia-reperfusion injury was induced, was excised in half and fixed in 10% formalin solution or stored frozen in liquid nitrogen. […]
To confirm the degree of lipid peroxidation in tissues, malondialdehyde (MDA) was confirmed by the TBARS method (Garcia Y J, et al., Journal of neuroscience methods. 2005).
Briefly, 1.4 ml of TBARS solution [0.375% thiobarbituric acid (TBA), 15% trichloroacetic acid (TCA), 0.25 N HCl] was added to the tissue pulverization solution (0.3 mg protein/0.1 ml), and boiled for 15 minutes at 95-100° C. and centrifugation was performed at 4° C. and 12,000 rpm for 10 minutes, and the absorbance of the supernatant was confirmed at 540 nm.
Lipid hydroperoxides were identified by ferrous ion oxidation xylenol orange (FOX) method (Jiang Z Y, et al., Lipids. 1991).
0.9 ml of FOX reagent (100 μM xylenol orange, 25 mM H2SO4, 0.1 M sorbitol, 2.5 mM ferrous ammonium sulfate] was reacted at room temperature for 30 minutes and then centrifuged to measure the absorbance of the supernatant at 570 nm. […]
RIPA buffer was added to the tissue and pulverized with WiseTis homogenizer HG-15D (DAIHAN Scientific, Seoul, South Korea). Centrifugation was performed at 12,000 rpm at 4° C. for 20 minutes, and the supernatant was transferred to a new tube.
The protein concentration of the supernatant was quantified by the BCA method. After electrophoresis (SDS-PAGE) of 30 μg of protein, Western blot analysis was performed. After electrophoresis, the protein was transferred from the gel to a polyvinylidene fluoride membrane (Pall Corporation).
The membrane was treated with a 5% Difco™ skim milk solution (Becton, Dickinson and Company, USA) for 2 hours at room temperature, and the primary antibody was added, followed by reaction at room temperature for 2 hours. As the primary antibody, anti-p53 antibody, anti-p16 antibody, anti-actin antibody, and anti-GAPDH antibody were purchased from Santa Cruz Biotechnology, Inc. Anti-phosphorylated-Rb antibody was obtained from New England Biolabs (Ipswich, Mass., USA), and the anti-SOD2 antibody and anti-catalase antibody were obtained from Bioworld Technology Inc. (Louis Park, Minn., USA), anti-4-HNE antibody, anti-α-smooth muscle actin antibody, and anti-type I collagen antibody were purchased from Abcam (Cambridge, UK).
The membrane treated with the primary antibody was washed three times for 15 minutes each with TBST (20 mM Tris-HCl (pH 8.0), 137 mM NaCl, 0.1% Tween 20), and reacted for 60 minutes by treatment with the secondary antibody.
After washing for at least 60 minutes with TBST, protein expression was confirmed using an ECL detection kit (Elpis Biotech, Daejeon, South Korea).
The tissue fixed in 10% formalin solution was embedded with paraffin and cut into 4 μm to prepare a tissue sample. […]

The test system of data set [2] is human tubular epithelial cell (HK2). The experiment in a line: CCK-8 cell growth analysis in premature senescent HK2 cells. The format is cell-based. To be noted: premature senescent HK2 cells by doxorubicin; 100 nM, 4 days; vs DMSO-treated group. On the procedure: Each cell was treated in a serum-free culture solution containing 0.5 μM doxorubicin for 4 hours. After washing the cells with a serum-free culture solution, the cells were cultured for 4 days in a culture solution containing 10% FBS, and then cellular aging was confirmed by staining with senescence-associated beta galactosidase (SAβG). After each sample was dissolved in DMSO, young cells, replicative senescent cells, and premature senescent cells treated with doxorubicin were treated with 100 nM zotarolimus, 100 nM rapamycin, 100 nM ABT263, respectively. After incubation for 4 days in a 37° C., 5% CO2 incubator, the degree of cell growth was confirmed by CCK-8 analysis, the degree of cellular aging was confirmed by senescence-related beta-galactosidase (SAβG) staining, Young cells (1×10^3 cells/well) or senescent cells (2×10^3 cells/well) were dispensed into a 96-well plate, and cultured overnight in a 37° C., 5% CO2 incubator. Zotarolimus, ABT263 and rapamycin were treated at each concentration, and then incubated for 4 days in a 37° C., 5% CO2 incubator. […] Then, the absorbance was measured at 450 nm using a microplate reader. The degree of cell growth was expressed as a relative value for the absorbance of the control group treated with only DMSO as 100%. […]

Setting [3] is: i.p. 3 times from day 4, vs PBS group.

For the compound `CO[C@H]1C[C@@H]2CC[C@@H](C)[C@@](O)(O2)C(=O)C(=O)N2CCCC[C@H]2C(=O)O[C@H]([C@H](C)C[C@@H]2CC[C@H](n3cnnn3)[C@H](OC)C2)CC(=O)[C@H](C)/C=C(\C)[C@@H](O)[C@@H](OC)C(=O)[C@H](C)C[C@H](C)/C=C/C=C/C=C/1C` [zotarolimus], the weight gain entry in data set [1] (body weight before injury vs 11th day, i.p. 3 times at 2-day intervals, vs Sham group) was “significantly reduced compared to that of the Sham group”. In addition, in data set [1] (setting [3]), the “plasma BUN” value is given as “decreased” and the plasma creatinine entry is listed as “decreased”. Also, in data set [1] (kidney tissue), the “expression of SOD2” value was “increased”, the expression of catalase result is “increased” and the superoxide result is “significantly reduced”. Moreover, the “damage to the kidney tubules” value in data set [1] (kidney tissue specimen, vs PBS group) is listed as “significantly reduced”. In data set [1] (kidney tissue, vs PBS group), the “degree of lipid oxidation (lipid hydroperoxides and MDA)” value was “significantly reduced”; the “degree of tissue fibrosis by trichrome staining” value was “significantly reduced”; the “expression level of 4-HNE (Western blot)” value is reported as “significantly reduced”; the “expression level of p16 (Western blot)” value is on record as “significantly reduced”. Also, in data set [1] (kidney tissue, vs PBS group), the “expression of p53 (Western blot)” value is reported as “significantly reduced”, the “expression of pRb (Western blot)” value is reported as “significantly reduced”, the “expression of type 1 collagen (COL1) (Western blot)” value is “significantly reduced” and the “expression of α-SMA (Western blot)” value is on record as “significantly reduced”. In addition, the “lipofuscin staining intensity (Sudan Black B)” value in data set [1] (kidney tissue, vs PBS group) was “significantly reduced”. The “cell growth (CCK-8)” value in data set [2] is listed as “no difference in the growth”.

These data come from patent publication US20220023271A1, “COMPOSITION FOR PREVENTING OR TREATING CELLULAR SENESCENCE-RELATED DISEASES COMPRISING ZOTAROLIMUS AS ACTIVE INGREDIENT” (RESEARCH COOPERATION FOUNDATION OF YEUNGNAM UNIVERSITY, priority 2018, published 2022).
